Measured values taken from the supplement of paper PMC10307832.

Legend:
Test in all cases: relative viability (nuclei count vs DMSO), 5 days (fraction); higher = more cells survive
Serdemetan + AZD7762 = compound: c1ccc2c(CCNc3ccc(Nc4ccncc4)cc3)c[nH]c2c1 [Serdemetan] + NC(=O)Nc1cc(-c2cccc(F)c2)sc1C(=O)N[C@H]1CCCNC1 [AZD7762] (partner 0.2 µM)
Procedure, shortened: (§1)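 Dosing by pin tool came one day after lung cancer cell lines were seeded in 1536-well plates, using either one drug or a fixed anchor-drug dose plus five library-drug doses (not always all listed) in √10 steps. After 5 days, nuclei were counted on 4× images. Relative viability is treated-well nuclei count divided by vehicle-well nuclei count, and values are medians of duplicate plates.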

Serdemetan + Bortezomib = compound: c1ccc2c(CCNc3ccc(Nc4ccncc4)cc3)c[nH]c2c1 [Serdemetan] + CC(C)C[C@H](NC(=O)[C@H](Cc1ccccc1)NC(=O)c1cnccn1)B(O)O [Bortezomib] (partner 0.002 µM)
Procedure, shortened: as §1

Selisistat + Alpelisib = compound: C1CC(C2=C(C1)C3=C(N2)C=CC(=C3)Cl)C(=O)N [Selisistat] + Cc1nc(NC(=O)N2CCC[C@H]2C(N)=O)sc1-c1ccnc(C(C)(C)C(F)(F)F)c1 [Alpelisib] (partner 2 µM)
Procedure, shortened: as §1

Serdemetan + Palbociclib = compound: c1ccc2c(CCNc3ccc(Nc4ccncc4)cc3)c[nH]c2c1 [Serdemetan] + CC(=O)c1c(C)c2cnc(Nc3ccc(N4CCNCC4)cn3)nc2n(C2CCCC2)c1=O [Palbociclib] (partner 0.5 µM)
Procedure, shortened: as §1

Cell Line | relative viability (Serdemetan + AZD7762; first compound 0.04 µM) | relative viability (Serdemetan + AZD7762; first compound 0.1265 µM) | relative viability (Serdemetan + AZD7762; first compound 0.4 µM) | relative viability (Serdemetan + AZD7762; first compound 1.265 µM) | relative viability (Serdemetan + AZD7762; first compound 4 µM) | relative viability (Serdemetan + Bortezomib; first compound 0.04 µM) | relative viability (Serdemetan + Bortezomib; first compound 0.1265 µM) | relative viability (Serdemetan + Bortezomib; first compound 0.4 µM) | relative viability (Serdemetan + Bortezomib; first compound 1.265 µM) | relative viability (Serdemetan + Bortezomib; first compound 4 µM) | relative viability (Selisistat + Alpelisib; first compound 0.4 µM) | relative viability (Selisistat + Alpelisib; first compound 1.265 µM) | relative viability (Selisistat + Alpelisib; first compound 4 µM) | relative viability (Selisistat + Alpelisib; first compound 12.65 µM) | relative viability (Selisistat + Alpelisib; first compound 40 µM) | relative viability (Serdemetan + Palbociclib; first compound 0.04 µM) | relative viability (Serdemetan + Palbociclib; first compound 0.1265 µM) | relative viability (Serdemetan + Palbociclib; first compound 0.4 µM) | relative viability (Serdemetan + Palbociclib; first compound 1.265 µM) | relative viability (Serdemetan + Palbociclib; first compound 4 µM)
LU99A | 0.315 | 0.347 | 0.212 | 0.117 | 0.14 | 1.19 | 1.08 | 1.12 | 0.4 | 0.255 | 0.538 | 0.553 | 0.565 | 0.505 | 0.514 | 0.431 | 0.371 | 0.308 | 0.203 | 0.22
ABC-1 | 0.971 | 0.67 | 0.722 |  | 0.866 | 0.294 | 0.328 | 0.317 | 0.307 | 0.278 | 0.977 | 0.972 | 0.872 | 1.15 | 0.921 | 0.553 | 0.586 | 0.694 | 0.611 | 0.459
NCI-H2347 | 0.673 | 0.686 | 0.668 | 0.462 | 0.406 | 1.05 | 0.752 | 1.2 | 1.01 | 0.744 | 1.17 | 1.15 | 0.824 | 1 | 1.12 | 0.448 | 0.367 | 0.403 | 0.358 | 0.406
NCI-H1993 | 0.789 | 0.897 | 0.588 | 0.778 | 0.726 | 1.08 | 1.06 | 1.05 |  | 1.11 | 0.575 | 0.67 |  | 0.775 | 0.721 | 0.64 | 0.603 | 0.736 | 0.699 | 0.569
NCI-H322M | 0.565 | 0.573 | 0.533 | 0.524 | 0.43 | 1.32 | 1.26 | 1.06 | 1.2 | 1.36 | 0.932 | 0.934 |  | 0.734 | 0.819 | 0.491 | 0.488 | 0.474 | 0.327 | 0.463
NCI-H838 | 0.866 | 0.94 | 0.887 | 0.849 | 0.882 | 0.869 | 0.739 | 0.848 | 0.74 | 0.856 | 1.11 | 0.971 | 0.912 | 1.1 | 0.954 | 0.212 | 0.221 | 0.243 | 0.232 | 0.23
HARA | 0.298 | 0.196 | 0.266 | 0.23 | 0.304 | 1.09 | 1.1 | 1.15 |  | 1.08 | 0.881 | 0.868 | 0.793 | 0.846 | 0.842 | 0.269 | 0.264 | 0.228 | 0.236 | 0.223
NCI-H2087 | 1.23 | 0.828 | 0.778 | 0.494 | 0.535 | 0.738 | 0.812 | 0.759 | 0.375 | 0.572 | 1.33 | 0.933 | 1 | 0.971 | 1.04 | 0.28 | 0.255 | 0.236 | 0.147 | 0.215
NCI-H1437 | 1.13 | 1.12 | 1.1 | 0.979 | 0.876 | 0.545 | 0.497 | 0.471 | 0.46 | 0.547 | 1.03 | 0.987 | 0.787 | 0.981 | 0.919 | 0.289 | 0.32 | 0.334 | 0.359 | 0.315
NCI-H1792 | 0.674 | 0.59 | 0.63 | 0.326 | 0.324 | 0.953 | 0.958 | 0.936 | 0.347 | 0.726 | 0.696 | 0.603 |  | 0.685 | 0.693 | 0.661 | 0.7 | 0.596 | 0.395 | 0.56
NCI-H650 | 0.854 | 0.977 | 1.2 | 1.02 | 0.933 | 0.673 | 0.679 | 0.872 | 0.674 | 0.848 | 1.38 |  | 1.47 | 1.06 | 1.15 | 0.332 | 0.365 | 0.344 | 0.282 | 0.287
201T | 0.624 | 0.502 | 0.846 | 0.378 | 0.422 | 1.08 | 1.14 | 1.1 | 1.05 | 1.06 | 1.04 | 0.986 | 0.981 | 1.03 | 1.02 | 0.367 | 0.353 | 0.341 | 0.33 | 0.327
HCC-44 | 0.921 | 1.01 | 0.994 | 0.936 | 0.934 | 0.854 | 0.849 | 0.827 | 0.621 | 0.85 | 0.86 | 0.874 | 0.853 | 0.846 | 0.9 | 0.927 | 0.93 | 0.953 | 0.92 | 0.922
H3255 | 0.826 | 0.601 | 0.733 | 0.832 | 0.792 | 0.827 | 0.68 | 0.886 | 0.746 | 0.7 | 0.724 | 0.662 | 0.725 | 0.62 | 0.786 | 0.327 | 0.333 | 0.346 | 0.286 | 0.342
NCI-H647 | 0.556 | 0.382 | 0.396 | 0.41 | 0.285 | 0.95 | 0.914 | 0.95 | 0.559 | 0.47 | 1.1 | 1.03 |  | 1.09 | 1.31 | 0.374 | 0.332 | 0.528 | 0.322 | 0.243
NCI-H23 | 0.274 | 0.235 | 0.261 |  | 0.208 | 1.1 | 1.07 | 1.05 | 0.81 | 1.09 | 0.811 | 0.871 |  | 0.662 | 0.688 | 0.474 | 0.472 | 0.461 |  | 0.437
NCI-H460 | 0.461 | 0.547 | 0.571 | 0.229 | 0.141 | 1.05 | 1.1 | 1.19 | 0.561 | 0.1 | 0.517 | 0.54 |  | 0.403 | 0.35 | 0.166 | 0.175 | 0.0992 | 0.0798 | 0.0544
